According to patent publication US20040067883A1, “Use of matrix metalloprotease inhibitors for the treatment of cancer” (priority 2000, published 2004):

Tests used:
UM-SCC-1 cells [1] = assay: In vitro invasion assay on Matrigel coated filters; format: cell-based, human; conditions: 60 hours, serum-free medium, +/− S.E., 3 dishes
Description: Invasion assays were performed as described (20, 25) using filters with 8 μm pore size coated with ⅓ diluted Matrigel®/SFM (Becton Dickinson, Bedford, Mass.). […] For experiments utilizing a mouse monoclonal MMP-9 Antibody (#IM09L, Oncogene Research Products, Cambridge, Mass.) (0.5, 1, and 10 μg/ml) cells were either plated out in SFM plus antibody of SFM plus similar amounts of preimmune serum. The amount of invasion was determined on the basis of the MTT-activity on the lower side of the filter as a percentage of the total activity in the chamber.
The concentration of the carrier (DMSO) was maintained at 0.1%. […] The data are typical of triplicate experiments.
Invasion is expressed as the percentage of cells invading through Matrigel®. Invasion upon treatment with varying concentrations of the antibody recognizing the active and latent form of MMP-9 or preimmune serum provided by the manufacturer is expressed as average percentage+/−S.E. and represents 3 dishes in each group. The data are typical of triplicate experiments.

UM-SCC-1 cells [2] = assay: Cell growth curves (MTT-vital stain); format: cell-based, human; conditions: 5 μM and 10 μM, up to 5 days, medium with 10% FBS
p38γ = biological target: T1, p38γ (Homo sapiens, UniProt P53778); conditions: reported (ref. 27); cited from earlier work
T1 sequence (P53778 1-367): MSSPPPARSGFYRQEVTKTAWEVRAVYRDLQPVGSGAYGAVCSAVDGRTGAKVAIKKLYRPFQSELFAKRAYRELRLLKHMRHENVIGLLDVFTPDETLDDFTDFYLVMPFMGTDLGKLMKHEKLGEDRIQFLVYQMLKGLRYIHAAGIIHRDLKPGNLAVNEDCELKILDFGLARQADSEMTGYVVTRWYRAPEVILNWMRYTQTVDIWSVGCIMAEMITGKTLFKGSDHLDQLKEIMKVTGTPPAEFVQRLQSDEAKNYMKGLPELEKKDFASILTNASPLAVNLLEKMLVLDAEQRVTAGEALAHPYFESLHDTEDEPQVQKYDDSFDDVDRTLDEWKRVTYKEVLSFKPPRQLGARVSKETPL

p38δ = biological target: T2, p38δ (Homo sapiens, UniProt O15264); conditions: reported (ref. 27); cited from earlier work
T2 sequence (O15264 1-365): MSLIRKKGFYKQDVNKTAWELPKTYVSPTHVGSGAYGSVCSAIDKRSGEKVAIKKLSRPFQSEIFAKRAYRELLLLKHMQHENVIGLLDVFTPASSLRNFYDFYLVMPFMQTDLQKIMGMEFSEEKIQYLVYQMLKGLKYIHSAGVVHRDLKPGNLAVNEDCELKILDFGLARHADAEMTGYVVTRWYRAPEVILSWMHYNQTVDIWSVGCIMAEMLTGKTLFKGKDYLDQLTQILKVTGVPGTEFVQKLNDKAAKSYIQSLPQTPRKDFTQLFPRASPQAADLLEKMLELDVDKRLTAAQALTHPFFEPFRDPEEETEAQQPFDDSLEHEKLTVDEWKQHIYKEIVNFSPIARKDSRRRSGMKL

MMP-9 = conditions: after treatment with phorbol myristate acetate (PMA); cited from earlier work
UMSCC-1 = conditions: after treatment with phorbol myristate acetate (PMA); cited from earlier work
matrix-metalloproteases = conditions: cited from earlier work

| SMILES | reduction of in-vitro invasion (UM-SCC-1 cells [1]; 5 μM) | reduction of in-vitro invasion (UM-SCC-1 cells [1]; 10 μM) | effect on cell growth (UM-SCC-1 cells [2]) | inhibition of p38γ (p38γ) | inhibition of p38δ (p38δ) | inhibition of enhanced MMP-9 secretion (MMP-9) | inhibition of enhanced in-vitro invasiveness (UMSCC-1) | IC50 value (matrix-metalloproteases) |
| --- | --- | --- | --- | --- | --- | --- | --- | --- |
| C[S+]([O-])c1ccc(-c2nc(-c3ccncc3)c(-c3ccc(F)cc3)[nH]2)cc1 (centres unmarked) [SB 203580] | 43+/−9% | 69+/−8% | does not affect cell growth | not inhibited | not inhibited | could be inhibited | could be inhibited | – |
| CNC(=O)[C@@H](NC(=O)[C@H](CC(C)C)[C@H](O)C(=O)NO)C(C)(C)C [marimastat] | – | – | – | – | – | – | – | micromolar range |
